Source: article PMC10313921, “A living ex vivo platform for functional, personalized brain cancer diagnosis” (Cell Reports Medicine, 2023)

Legend:
Type in all cases: cell-based, human
[1] = system: MS21 (low-passage patient-derived GBM line); experiment: Drug screening of MS21 tumor foci on OBSCs; conditions: MS21 on OBSCs
Experimental: (§1) Tumor cells (0.17 μL, 25,000 cells) were seeded onto OBSCs 2h after slicing, with one tumor seeded in the center of each hemisphere for a total of two tumor foci per OBSC. BSM was changed 24h after slicing. Fluorescence images were taken 0 h, 24 h, and 96 h post-seeding for normalization of tumor size. Bioluminescence readouts were also taken at 0 h, 24 h, and 96 h post seeding for assessment of cell viability. Luciferin was added underneath the culture insert and allowed to incubate for 10 min before bioluminescence measurement on an AMI optical imaging system.
(§2) Tumor cells were seeded onto OBSCs 2h after slicing as described above. One day after tumor seeding, six concentrations of each drug were diluted in the media underneath each culture insert, or XRad was applied using an X-Rad 320 Precision X-ray machine (n = 4 tumor foci per concentration; n ≥ 24 tumor foci per drug per cell line). Three days after treatment, the bioluminescence of live tumor cells was measured using an AMI optical imager (Spectral Instruments) and dose-response curves were generated. Tumor survival was normalized to day one tumor fluorescence and compared to an untreated control group.
(§3) Several weighted parameters were factored into an overall drug sensitivity score.
(§4) For DSS parameters 1–6, therapeutic windows were calculated by comparing OBSC toxicity and tumor response at the doses where tumor kill passed through the DSS parameter (Table S1 and S3). For DSS parameter 7, the therapeutic window was calculated by comparing the slopes through the tumor EC50 and the OBSC tox EC50. For DSS parameter 8, the therapeutic window was calculated by comparing the areas under tumor kill and OBSC tox curves. Normalized therapeutic window ratios for DSS parameters 1–8 within each drug-tumor-OBSC interaction were calculated in the following manner: within each window, values ranged from +1 to −1, where values approaching +1 signify increasing tumor kill relative to normal tissue toxicity, and values approaching −1 indicate agents where tumors remained highly viable while toxicity to the normal OBSC tissue was elevated. DSS parameters 9–11 were determined based on the behavior of the tumor in response to the drug, as defined above.
(§5) All individually weighed parameters were added together to generate the DSS. Overall DSS from 0 to 100 signify increasing efficacy in tumor kill relative to OBSC toxicity, while scores from 0 to −100 describe scenarios in which tumors thrive more effectively than OBSCs for a given treatment. Dose-response values were calculated via linear interpolation of raw data, not from best-fit curve equations.

[2] = system: PDIPG (low-passage pediatric patient-derived line); experiment: Drug screening of PDIPG tumor foci on OBSCs; conditions: PDIPG on OBSCs
Experimental: as §1, §2, §3, §4, §5

[3] = system: U373WT (wild-type established GBM line); experiment: Drug screening of U373WT tumor foci on OBSCs
Experimental: as §1, §2, §3, §4, §5

[4] = system: 7 cell lines (MB231Br, LN229, U373WT, U373KO, GBM8, MS21, PDIPG); experiment: Drug screening on OBSCs, summary over the panel of seven tumor lines; conditions: number of lines responding
Experimental: as §1, §2, §3, §4, §5

[5] = system: LN229 (established GBM line); experiment: Drug screening of LN229 tumor foci on OBSCs
Experimental: as §1, §2, §3, §4, §5

[6] = system: GBM8 (high-passage patient-derived GBM line); experiment: Drug screening of GBM8 tumor foci on OBSCs; conditions: GBM8 on OBSCs
Experimental: as §1, §2, §3, §4, §5

[7] = system: U373KO (RAD18 knockout of U373WT via CRISPR); experiment: Drug screening of U373KO tumor foci on OBSCs; conditions: U373 KO on OBSCs
Experimental: as §1, §2, §3, §4, §5

[8] = system: MB231Br (breast cancer metastasis to brain); experiment: Drug screening of MB231Br tumor foci on OBSCs; conditions: MB231BR on OBSCs
[9] = area under the dose-response curve, trapezoidal rule
[10] = dose required to kill 10% of the tumor
[11] = dose required to kill 25% of the tumor
[12] = dose required to kill 50% of the tumor, read-out: EC50
[13] = dose required to kill 75% of the tumor
[14] = dose required to kill 90% of the tumor, read-out: EC90
[15] = dose required to kill 50% of the tumor
[16] = dose required to kill 90% of the tumor

## N.N.[Cl][Pt][Cl] [Cisplatin]
[1]
  Killing at highest dose: 9.99E-01 fraction of tumor population killed
[1]; [9]
  AUC: 4.20E+00
[1]; [10]
  EC10: 4.55 µM
[1]; [11]
  EC25: 11.6 µM
[1]; [12]
  EC50: 24.7 µM
[1]; [13]
  EC75: 37.9 µM
[1]; [14]
  EC90: 45.7 µM
[1]; slope through the EC50
  Slope: -1.90E-02
[2]
  Killing at highest dose: 1.00E+00 fraction of tumor population killed
[2]; [9]
  AUC: 4.87E+00
[2]; [10]
  EC10: 3.17 µM
[2]; [11]
  EC25: 7.94 µM
[2]; [12]
  EC50: 16.8 µM
[2]; [13]
  EC75: 27.3 µM
[2]; [14]
  EC90: 41.5 µM
[2]; slope through the EC50
  Slope: -2.73E-02
[3]; U373 WT on OBSCs
  Killing at highest dose: 1.00E+00 fraction of tumor population killed
[3]; U373 WT on OBSCs, area under the dose-response curve, trapezoidal rule
  AUC: 1.33E+01
[3]; U373 WT on OBSCs, dose required to kill 10% of the tumor
  EC10: 20.3 µM
[3]; U373 WT on OBSCs, dose required to kill 25% of the tumor
  EC25: 28.4 µM
[3]; U373 WT on OBSCs, dose required to kill 50% of the tumor
  EC50: 41.9 µM
[3]; U373 WT on OBSCs, dose required to kill 75% of the tumor
  EC75: 65.2 µM
[3]; U373 WT on OBSCs, dose required to kill 90% of the tumor
  EC90: 87.9 µM
[3]; U373 WT on OBSCs, slope through the EC50
  Slope: -1.85E-02
[3]; U373 WT, scale -100 to +100, tumor kill relative to OBSC toxicity
  DSS (drug sensitivity score): 62
[4]
  response / killing over the 7 cell lines: robust response
[5]
  Killing at highest dose: 1.00E+00 fraction of tumor population killed
[5]; [9]
  AUC: 7.69E+01
[5]; [10]
  EC10: 74.6 µM
[5]; [11]
  EC25: 81.3 µM
[5]; [15]
  EC50: 92.4 µM
[5]; [13]
  EC75: 136 µM
[5]; [16]
  EC90: 205 µM
[5]; slope through the EC50
  Slope: -2.20E-03
[6]
  Killing at highest dose: 1.00E+00 fraction of tumor population killed
[6]; [9]
  AUC: 1.76E-01
[6]; [10]
  EC10: 0.0906 µM
[6]; [11]
  EC25: 0.226 µM
[6]; [12]
  EC50: 0.453 µM
[6]; [13]
  EC75: 2.74 µM
[6]; [14]
  EC90: 4.2 µM
[6]; slope through the EC50
  Slope: -1.10E+00
[7]
  Killing at highest dose: 1.00E+00 fraction of tumor population killed
[7]; [9]
  AUC: 1.56E+01
[7]; [10]
  EC10: 33.2 µM
[7]; [11]
  EC25: 36.5 µM
[7]; [15]
  EC50: 42 µM
[7]; [13]
  EC75: 47.6 µM
[7]; [16]
  EC90: 114 µM
[7]; slope through the EC50
  Slope: -4.53E-02
[8]
  Killing at highest dose: 1.00E+00 fraction of tumor population killed
[8]; [9]
  AUC: 6.20E+01
[8]; [10]
  EC10: 74.1 µM
[8]; [11]
  EC25: 87.1 µM
[8]; [15]
  EC50: 125 µM
[8]; [13]
  EC75: 188 µM
[8]; [16]
  EC90: 225 µM
[8]; slope through the EC50
  Slope: -4.00E-03
